pIC50: −log10 of the molar value.
Target: T1, P2X purinoceptor 7 (Homo sapiens, UniProt Q99572)
T1 sequence (Q99572 whole entry): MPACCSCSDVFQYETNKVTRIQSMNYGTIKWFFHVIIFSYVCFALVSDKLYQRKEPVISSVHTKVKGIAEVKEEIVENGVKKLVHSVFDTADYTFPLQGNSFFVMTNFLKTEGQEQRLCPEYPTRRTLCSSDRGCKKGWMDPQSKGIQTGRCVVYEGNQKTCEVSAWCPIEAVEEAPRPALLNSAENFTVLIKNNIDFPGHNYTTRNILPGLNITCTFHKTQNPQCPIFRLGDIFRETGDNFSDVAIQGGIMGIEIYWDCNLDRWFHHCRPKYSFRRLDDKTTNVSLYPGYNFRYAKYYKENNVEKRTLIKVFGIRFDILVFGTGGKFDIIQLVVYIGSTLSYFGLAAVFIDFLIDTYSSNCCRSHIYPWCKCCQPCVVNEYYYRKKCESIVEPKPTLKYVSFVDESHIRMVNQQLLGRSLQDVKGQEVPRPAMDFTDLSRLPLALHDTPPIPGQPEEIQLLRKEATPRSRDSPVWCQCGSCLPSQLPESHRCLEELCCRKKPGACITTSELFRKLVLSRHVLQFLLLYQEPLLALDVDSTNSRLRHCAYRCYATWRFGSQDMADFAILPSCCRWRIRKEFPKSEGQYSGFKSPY
Test: SUPPLEMENTARY: Inhibition of human P2X7 receptor assessed as inhibition of ethidium bromide accumulation. Same assay as CHEMBL1103860

| SMILES | pIC50 |
| --- | --- |
| CC(C)(C)c1nnc2n1CCN(C(=O)c1cccc(C(F)(F)F)c1Cl)C2 | 6.70 |
| O=C(c1ccc(F)cc1Cl)N1CCn2c(nnc2-c2ccccc2)C1 | 7.90 |
| Cn1ccc(-c2nnc3n2CCN(C(=O)c2cccc(C(F)(F)F)c2Cl)C3)n1 | 8.30 |
| Cn1cccc1-c1nnc2n1CCN(C(=O)c1cccc(C(F)(F)F)c1Cl)C2 | 8.20 |
| Cc1cc(-c2nnc3n2CCN(C(=O)c2cccc(C(F)(F)F)c2Cl)C3)no1 | 7.90 |
| O=C(c1ccc(F)cc1Cl)N1CCn2c(nnc2-c2cnccn2)C1 | 8.30 |
| O=C(c1cccc(C(F)(F)F)c1Cl)N1CCn2c(nnc2-c2ccc[nH]2)C1 | 8.80 |
| O=C(c1cccc(C(F)(F)F)c1Cl)N1CCn2c(nnc2-c2cscn2)C1 | 8.80 |
| O=C(c1cccc(C(F)(F)F)c1Cl)N1CCn2c(nnc2-c2cccnn2)C1 | 7.90 |
| O=C(c1cccc(C(F)(F)F)c1Cl)N1CCn2c(nnc2-c2ccc(F)cn2)C1 | 8.60 |
| Cn1cccc1-c1nnc2n1CCN(C(=O)c1cccc(Cl)c1Cl)C2 | 7.90 |
| Cc1cc(-c2nnc3n2CCN(C(=O)c2cccc(Cl)c2Cl)C3)no1 | 7.60 |
| O=C(c1cccc(Cl)c1Cl)N1CCn2c(nnc2-c2cccnn2)C1 | 7.50 |
| O=C(c1ccc(F)cc1Cl)N1CCn2c(nnc2-c2cccnn2)C1 | 6.30 |
| Cn1ccc(-c2nnc3n2CCN(C(=O)c2cccc(Cl)c2Cl)C3)n1 | 8.20 |
| O=C(c1cccc(Cl)c1Cl)N1CCn2c(nnc2-c2ccc[nH]2)C1 | 8.60 |
| O=C(c1cccc(Cl)c1Cl)N1CCn2c(nnc2-c2cscn2)C1 | 9.00 |
| Cn1nccc1-c1nnc2n1CCN(C(=O)c1cccc(C(F)(F)F)c1Cl)C2 | 7.80 |
| O=C(c1ccc(F)cc1Cl)N1CCn2c(Br)nnc2C1 | 6.50 |
| O=C(c1cccc(C(F)(F)F)c1Cl)N1CCn2c(nnc2-c2ccco2)C1 | 8.80 |
| Cn1nccc1-c1nnc2n1CCN(C(=O)c1cccc(Cl)c1Cl)C2 | 7.60 |
| O=C(c1ccc(F)cc1Cl)N1CCn2c(Br)cnc2C1 | 6.30 |
| O=C(c1cccc(C(F)(F)F)c1F)N1CCn2c(nnc2-c2ccccn2)C1 | 8.30 |
| O=C(c1ccc(Cl)cc1Cl)N1CCn2c(nnc2-c2cnccn2)C1 | 8.50 |
| O=C(c1ccc(F)cc1C(F)(F)F)N1CCn2c(nnc2-c2ccccn2)C1 | 7.50 |

| SMILES | pIC50 |
| --- | --- |
| O=C(c1ccc(Cl)cc1Cl)N1CCn2c(nnc2-c2ccc(F)cn2)C1 | 7.90 |
| O=C(c1cccc(C(F)(F)F)c1Cl)N1CCn2c(-c3ccc(F)cn3)cnc2C1 | 8.40 |
| O=C(c1ccc(Cl)cc1Cl)N1CCn2c(nnc2-c2cscn2)C1 | 8.70 |
| O=C(c1cccc(Cl)c1Cl)N1CCn2c(nnc2-c2ccc(F)cc2)C1 | 8.50 |
| O=C(c1cccc(Cl)c1Cl)N1CCn2c(nnc2-c2ccc(F)cc2F)C1 | 7.90 |
| O=C(c1ccc(F)cc1Cl)N1CCn2c(nc(C(F)(F)F)c2Br)C1 | 7.50 |
| O=C(c1ccc(Cl)cc1Cl)N1CCn2c(nnc2-c2ccc(F)cc2)C1 | 7.80 |
| O=C(c1ccc(Cl)cc1Cl)N1CCn2c(nnc2-c2ccc(F)cc2F)C1 | 7.00 |
| O=C(c1ccc(Cl)cc1Cl)N1CCn2c(nnc2-c2ccncn2)C1 | 7.50 |
| O=C(c1ccccc1Cl)N1CCn2c(nnc2-c2cscn2)C1 | 8.00 |
| O=C(c1ccc(Cl)c(Cl)c1)N1CCn2c(nnc2-c2cnccn2)C1 | 7.50 |
| O=C(c1ccc(Cl)c(C(F)(F)F)c1)N1CCn2c(nnc2-c2cnccn2)C1 | 7.50 |
| O=C(c1ccc(F)c(C(F)(F)F)c1)N1CCn2c(nnc2-c2cnccn2)C1 | 7.90 |
| O=C(c1ccc(F)c(Cl)c1)N1CCn2c(nnc2-c2cnccn2)C1 | 7.70 |
| Cc1cc(F)ccc1C(=O)N1CCn2c(nnc2-c2cnccn2)C1 | 7.80 |
| O=C(c1ccccc1Cl)N1CCn2c(nnc2-c2ccncn2)C1 | 6.80 |
| O=C(c1ccccc1Cl)N1CCn2c(nnc2-c2ccc(F)cn2)C1 | 7.40 |
| O=C(c1ccccc1Cl)N1CCn2c(nnc2-c2ccc(F)cc2)C1 | 7.10 |
| O=C(c1ccccc1Cl)N1CCn2c(nnc2-c2cnccn2)C1 | 7.70 |
| O=C(c1ccccc1Cl)N1CCn2c(nnc2-c2ncccc2F)C1 | 7.50 |
| O=C(c1ccccc1C(F)(F)F)N1CCn2c(nnc2-c2ccccn2)C1 | 7.20 |
| O=C(c1ccc(F)c(Cl)c1Cl)N1CCn2c(nnc2-c2cnccn2)C1 | 8.70 |
| O=C(c1ccc(Cl)c(F)c1Cl)N1CCn2c(nnc2-c2cnccn2)C1 | 8.70 |
| O=C(c1ccc(Cl)c(F)c1Cl)N1CCn2c(nnc2-c2ccncn2)C1 | 7.70 |
| Cc1ccc(-c2ccc(C)c(N3CCN(C(=O)c4cccc(C(F)(F)F)c4Cl)CC3=O)c2)cn1 | 7.40 |

| SMILES | pIC50 |
| --- | --- |
| Cc1c(N2CCCC2)cccc1N1CCN(C(=O)c2cccc(C(F)(F)F)c2Cl)CC1=O | 8.00 |
| O=C(c1cccc(Cl)c1Cl)N1CCN(c2cc(N3CCOCC3)ccc2Cl)C(=O)C1 | 8.30 |
| O=C(c1c(Cl)cc(Cl)cc1Cl)N1CCN(c2cc(N3CCOCC3)ccc2Cl)C(=O)C1 | 8.00 |
| O=C(c1cccc(C(F)(F)F)c1Cl)N1CCN(c2cc(N3CCOCC3)ccc2Cl)C(=O)C1 | 8.10 |
| O=C(c1cccc(C(F)(F)F)c1Cl)N1CCn2c(nnc2-c2ccccc2)C1 | 8.50 |
| O=C(c1cccc(C(F)(F)F)c1Cl)N1CCn2c(nnc2N2CCCC2)C1 | 7.80 |
| O=C(c1ccccc1Cl)N1CCn2c(-c3ccccc3)cnc2C1 | 7.30 |
| O=C(c1cccc(Cl)c1Cl)N1CCn2c(-c3ccccc3)cnc2C1 | 8.30 |
| O=C(c1ccc(F)cc1Cl)N1CCn2c(-c3ccccc3)cnc2C1 | 7.80 |
| O=C(c1c(Cl)cc(Cl)cc1Cl)N1CCn2c(-c3ccccc3)cnc2C1 | 7.90 |
| O=C(c1cccc(C(F)(F)F)c1Cl)N1CCn2c(nnc2N2CCOCC2)C1 | 6.60 |
| CN(C)c1nnc2n1CCN(C(=O)c1cccc(C(F)(F)F)c1Cl)C2 | 7.70 |
| O=C(c1cccc(C(F)(F)F)c1Cl)N1CCN(c2cccc(N3CCOCC3)c2Cl)C(=O)C1 | 7.90 |
| O=C(c1cccc(C(F)(F)F)c1Cl)N1CCn2c(-c3ccc(F)cc3)cnc2C1 | 7.90 |
| Cc1c(N2CCOCC2)cccc1N1CCN(C(=O)c2cccc(Cl)c2Cl)CC1=O | 7.80 |
| Cc1c(N2CCOCC2)cccc1N1CCN(C(=O)c2cccc(C(F)(F)F)c2Cl)CC1=O | 7.90 |
| Cc1c(N2CCOCC2)cccc1N1CCN(C(=O)c2c(Cl)cc(Cl)cc2Cl)CC1=O | 7.40 |
| Cc1nnc2n1CCN(C(=O)c1cccc(C(F)(F)F)c1Cl)C2 | 7.50 |
| Cc1ccc(N2CCC(O)C2)cc1N1CCN(C(=O)c2cccc(C(F)(F)F)c2Cl)CC1=O (stereo not drawn) | 8.00 |
| Cc1ccc(-c2cccc(N3CCN(C(=O)c4cccc(C(F)(F)F)c4Cl)CC3=O)c2C)cn1 | 7.30 |
| CCc1nnc2n1CCN(C(=O)c1cccc(C(F)(F)F)c1Cl)C2 | 7.50 |
| O=C(c1cccc(C(F)(F)F)c1Cl)N1CCn2c(Br)cnc2C1 | 8.00 |
| O=C(c1cccc(C(F)(F)F)c1Cl)N1CCn2c(nnc2-c2cccnc2)C1 | 8.20 |
| Cc1ccccc1-c1cnc2n1CCN(C(=O)c1cccc(C(F)(F)F)c1Cl)C2 | 7.00 |
| COc1nnc2n1CCN(C(=O)c1cccc(C(F)(F)F)c1Cl)C2 | 7.10 |

| SMILES | pIC50 |
| --- | --- |
| CNc1nnc2n1CCN(C(=O)c1cccc(C(F)(F)F)c1Cl)C2 | 6.60 |
| O=C(c1cccc(C(F)(F)F)c1Cl)N1CCn2c(nnc2N2CCC2)C1 | 7.60 |
| O=C(c1cccc(C(F)(F)F)c1Cl)N1CCn2c(nnc2N2CCCCC2)C1 | 7.00 |
| CC(c1ccccc1)N1CCN(C(=O)c2cccc(C(F)(F)F)c2Cl)CC1=O (stereo not drawn) | 7.50 |
| O=C(c1cccc(C(F)(F)F)c1Cl)N1CCn2c(nc(I)c2I)C1 | 8.20 |
| O=C(c1cccc(C(F)(F)F)c1Cl)N1CCn2c(nnc2-c2ccncc2)C1 | 7.60 |
| O=C(c1cccc(C(F)(F)F)c1Cl)N1CCn2c(I)cnc2C1 | 8.40 |
| Cc1cnc2n1CCN(C(=O)c1cccc(C(F)(F)F)c1Cl)C2 | 7.30 |
| O=C(c1cccc(C(F)(F)F)c1Cl)N1CCn2c(nc(C(F)(F)F)c2Br)C1 | 8.30 |
| O=C(c1cccc(Cl)c1Cl)N1CCn2c(Br)nnc2C1 | 7.30 |
| O=C(c1cccc(C(F)(F)F)c1Cl)N1CCn2c(nc(C(F)(F)F)c2-c2ccccc2)C1 | 7.30 |
| O=C(c1ccc(Cl)cc1Cl)N1CCn2c(Br)nnc2C1 | 6.70 |
| O=C(c1c(Cl)cc(Cl)cc1Cl)N1CCn2c(Br)nnc2C1 | 6.40 |
| O=C(c1cccc(C(F)(F)F)c1F)N1CCn2c(Br)nnc2C1 | 7.10 |
| Cc1cn2c(n1)CN(C(=O)c1cccc(C(F)(F)F)c1Cl)CC2 | 6.90 |
| Cc1cn2c(n1)CN(C(=O)c1cccc(Cl)c1Cl)CC2 | 6.50 |
| O=C(c1cccc(C(F)(F)F)c1Cl)N1CCn2c(-c3cccc(C(F)(F)F)c3Cl)cnc2C1 | 6.20 |
| O=C(c1cccc(C(F)(F)F)c1Cl)N1CCn2c(-c3ccc(Cl)cc3)cnc2C1 | 6.60 |
| CC(C)(C)c1cn2c(n1)CN(C(=O)c1cccc(C(F)(F)F)c1Cl)CC2 | 6.20 |
| O=C(c1cccc(C(F)(F)F)c1Cl)N1CCn2cc(-c3ccccc3)nc2C1 | 6.50 |
| O=C(c1cccc(Cl)c1Cl)N1CCn2cc(-c3ccccc3)nc2C1 | 6.20 |
| O=C(c1cccc(C(F)(F)F)c1Cl)N1CCn2c(nnc2-c2ccncn2)C1 | 7.90 |
| O=C(c1cccc(C(F)(F)F)c1Cl)N1CCn2c(nnc2-c2ccc(F)cc2F)C1 | 7.80 |

Reference: ChEMBL document CHEMBL2218064, “Structure-activity relationship data for chemical series of antagonists of the P2X7 receptor (Supplementary Bioactivity Data for publication CHEMBL1157114)”
